Peptide text beside a SMILES is read from it. * marks the point of attachment. X1 = CS(=O)(=O)C=CC(CC(=O)O)N*
Assays:
Cloned cathepsin S = molecular target: T1, Cloned cathepsin S (Homo sapiens, UniProt P25774); experiment: Inhibition of cathepsin S, Z-Val-Val-Arg-AMC fluorescence progress curves; format: biochemical; conditions: for kobs /[I]* (approximate second-order inactivation constant) / kinact/KI: values marked *; for kinact/KI: read-out: kobs /[I]* (approximate second-order inactivation constant)
T1 construct: made in house
Protocol: Stock solutions of the various inhibitors (10 mM) were made in DMF; dilutions were made in the same solvent. Cloned cathepsin S, (see Bromme et al., J. Biol. Chem. 268(&): 4832-4838 (1993)) was less than 1 nM in the assay. The assay buffer contained 100 mM phosphate at pH 6.5, 0.01% Triton, 2.5 mM dithiothreitol (DTT), and 2.5 mM ethylenediaminetetraacetic acid (EDTA). The substrate for cathepsin S was 10 μM Z-Val-Val-Arg-AMC (carbobenzyloxyvalinylvalinylarginylaminomethylcoumarin). The assays were initiated at 25° C. by addition of enzyme to 2 mL of assay buffer containing the substrate and the various inhibitors (30-0.001 μM). The increase in fluorescence at 460 nm with excitation at 380 nm was followed with time. Inactivation of cathepsin S was indicated by a downward curve in the increase in fluorescence with time. In the absence of inhibitors, the enzymatic production of free AMC was linear throughout the time course of inactivation examined. Data points were collected over at least 3 half-times of inactivation. The inhibition progress curves were analyzed using non-linear curve fitting software to compute the kobs values. Approximate second-order inactivation constants (kobs /[I]) were calculated for all compounds. For selected inhibitors, plots of 1/[I] vs. 1/kobs yielded the true constants kirr, KI, and kirr /KI, and were corrected for the presence of substrate by dividing KI (app.) by {1+[S]/Km}.

[1] = molecular target: T2, Cathepsin B from human placenta (Homo sapiens, UniProt P07858); experiment: Inhibition of cathepsin B, Z-Arg-Arg-AMC fluorescence progress curves; format: biochemical; conditions: for k/KI (kirr/KI): values without asterisk; for k/KI (kirr/KI) / kobs /[I]* (approximate second-order inactivation constant): 25° C., pH 6.2; for kobs /[I]* (approximate second-order inactivation constant): values marked *
T2 construct: Cathepsin B from human placenta, obtained from Sigma; purchased Sigma; host or cells: human placenta (tissue)
Protocol: Stock solutions of the various inhibitors (10 mM) were made in DMF; dilutions were made in the same solvent. Cathepsin B from human placenta, obtained from Sigma, was approximately 10 nM in the assay. The assay buffer contained 50 mM phosphate at pH 6.2, 2.5 mM dithiothreitol (DTT), and 2.5 mM ethylenediaminetetraacetic acid (EDTA). The substrate for cathepsin B was 50 μM Z-Arg-Arg-AMC (carbobenzyloxyarginylarginylaminomethylcoumarin). The assays were initiated at 25° C. by addition of enzyme to 2 mL of assay buffer containing the substrate and the various inhibitors (30-0.001 (μM). The increase in fluorescence at 460 nm with excitation at 380 nm was followed with time, and the assay was linear throughout the range observed. Inactivation of cathepsin B was indicated by a downward curve in the increase in fluorescence with time. In the absence of inhibitors, the enzymatic production of free AMC was linear throughout the time course of inactivation examined. Data points were collected over at least 3 half-times of inactivation, and in duplicate. The inhibition progress curves were analyzed using non-linear curve fitting software to compute the kobs values. Approximate second-order inactivation constants (kobs /[I]) were calculated for all compounds. For selected inhibitors, plots of 1/[I] vs. 1/kobs yielded the true constants kirr, KI, and kirr /KI, and were corrected for the presence of substrate by dividing KI (app.) by {1+[S]/Km }.

[2] = tested on: Leishmania donovani amastigote infected mouse peritoneal macrophages; experiment: In vitro antiprotozoal activity, Leishmania donovani; format: cell-based; set-up: key to percentage inhibition, L. donovani: the term "T" indicates the molecule to have displayed cytotoxicity
Protocol: (§1) In this table, the in vitro antiprotozoal activities of the indicated compounds were measured as percentage inhibition of Leishmania donovani amastigote infecteda mouse peritoneal macrophages, Trypanosoma cruzi amastigote infected macrophages, and Trypanosoma brucei extracellular bloodstream forms.

[3] = tested on: Trypanosoma cruzi amastigote infected macrophages; experiment: In vitro antiprotozoal activity, Trypanosoma cruzi; format: cell-based
Protocol: as §1

[4] = tested on: Trypanosoma brucei extracellular bloodstream forms; experiment: In vitro antiprotozoal activity, Trypanosoma brucei; format: cell-based
Protocol: as §1

cruzain, from T. cruzi = cruzain, from T. cruzi (Trypanosoma cruzi, UniProt P25779); experiment: Inhibition of cruzain, as for cathepsin L; format: biochemical; conditions: for kobs /[I]* (approximate second-order inactivation constant): values marked *
Protocol: (§2) Stock solutions of the various inhibitors (10 mM) were made in DMF; dilutions were made in the same solvent. Cathepsin L from rat liver, (see Mason et al., Biochem. J. 226:233-241 (1985)) was approximately 1 nM in the assay. The assay buffer contained 50 mM phosphate at pH 6:2, 2.5 mM dithiothreitol (DTT), and 2.5 mM ethylenediaminetetraacetic acid (EDTA). The substrate for cathepsin L was 5 μM Z-Phe-Arg-AMC (carbobenzyloxyphenylalanylarginylaminomethylcoumarin). The assays were initiated at 25° C. by addition of enzyme to 2 mL of assay buffer containing the substrate and the various inhibitors (30-0.001 μM). The increase in fluorescence at 460 nm with excitation at 380 nm was followed with time. Inactivation of cathepsin L was indicated by a downward curve in the increase in fluorescence with time. In the absence of inhibitors, the enzymatic production of free AMC was linear throughout the time course of inactivation examined. Data points were collected over at least 3 half-times of inactivation. The inhibition progress curves were analyzed using non-linear curve fitting software to compute the kobs values. Approximate second-order inactivation constants (kobs /[I]) were calculated for all compounds. For selected inhibitors, plots of 1/[I] vs. 1/kobs yielded the true constants kirr, KI, and kirr/KI and were corrected for the presence of substrate by dividing KI (app.) by (1+[S]/Km).
Inhibition of cruzain, from T. cruzi, (see Eakin et at., J. Biol. Chem. 268(9): 6115-6118 (1993)) proceeded exactly as for cathepsin L, outlined above, using an enzyme concentration of 1 nM.

[5] = molecular target: T3, Cathepsin L from rat liver (Rattus norvegicus, UniProt P07154); experiment: Inhibition of cathepsin L, Z-Phe-Arg-AMC fluorescence progress curves; format: biochemical; conditions: for kobs /[I]* (approximate second-order inactivation constant): values marked *; for kobs /[I]* (approximate second-order inactivation constant) / k/KI (kirr/KI): 25° C., pH 6.2; for Ki: corrected for substrate; for k/KI (kirr/KI): values without asterisk
T3 construct: Cathepsin L from rat liver; from tissue; host or cells: rat liver
Protocol: as §2

T3 sequence (P07154 114-288 limits assumed): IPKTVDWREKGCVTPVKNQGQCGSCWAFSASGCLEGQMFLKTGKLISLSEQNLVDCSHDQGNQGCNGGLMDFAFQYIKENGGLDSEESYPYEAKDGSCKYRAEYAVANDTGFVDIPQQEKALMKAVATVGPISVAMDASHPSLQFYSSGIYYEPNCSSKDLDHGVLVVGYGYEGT
T3 sequence (P07154 291-334 limits assumed): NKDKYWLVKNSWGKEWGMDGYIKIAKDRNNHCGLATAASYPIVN
Sequence of cruzain, from T. cruzi (P25779 123-337 limits assumed): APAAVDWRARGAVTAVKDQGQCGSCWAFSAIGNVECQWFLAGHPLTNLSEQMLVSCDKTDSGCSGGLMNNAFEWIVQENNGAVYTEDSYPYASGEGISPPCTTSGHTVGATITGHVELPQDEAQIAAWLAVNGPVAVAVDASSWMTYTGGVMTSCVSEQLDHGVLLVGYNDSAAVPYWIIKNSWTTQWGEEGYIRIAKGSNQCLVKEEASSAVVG
T1 sequence (P25774 115-331): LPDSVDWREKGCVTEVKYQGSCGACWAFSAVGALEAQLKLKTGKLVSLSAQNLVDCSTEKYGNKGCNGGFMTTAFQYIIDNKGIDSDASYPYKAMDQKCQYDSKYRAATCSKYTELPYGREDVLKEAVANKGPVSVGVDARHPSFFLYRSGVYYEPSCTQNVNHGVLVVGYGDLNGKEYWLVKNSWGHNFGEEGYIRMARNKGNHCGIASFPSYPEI

Compound: CC(C)C[C@H](NC(=O)OCc1ccccc1)C(=O)N[C@H](/C=C/S(=O)(=O)c1ccccc1)Cc1ccccc1
- kobs /[I]* (approximate second-order inactivation constant) (Cloned cathepsin S; 25° C., pH 6.5): 3,000,000 M^-1 sec^-1

Compound: CC(=O)N[C@@H](CC(C)C)C(=O)N[C@@H](CC(C)C)C(=O)N[C@H](/C=C/S(=O)(=O)c1ccccc1)Cc1ccc(O)cc1 [Ac-Leu-Leu-TyrVSPh, (S)-(E)-3-(acetylleucylleucyl)amino-4-(4-hydroxyphenyl)-1-phenylsulfonyl-1-butene]
- kinact/KI (Cloned cathepsin S; 25° C., pH 6.5): 100000 M⁻¹ s⁻¹

Compound: CC(=O)NC(Cc1ccc(O)cc1)C(=O)NC(Cc1ccc(O)cc1)C(=O)NC(C(=O)NC(C)C(=O)NC(C=CS(C)(=O)=O)CC(=O)O)C(C)C (stereo not drawn) [Ac-Tyr-Tyr-Val-Ala-AspVSMe] (Ac-YYVA-X1; configuration not given here)
- k/KI (kirr/KI) [1]: 0 M⁻¹ s⁻¹

Compound: CN(C)S(=O)(=O)N[C@@H](Cc1ccccc1)C(=O)N[C@H](/C=C/S(=O)(=O)c1ccccc1)CCc1ccccc1 [DimSam-Phe-HphVSPh, (S)-(E)-3-(dimethylsulfamoylphenylalanyl)amino-5-phenyl-1-phenylsulfonyl-1-pentene]
- kinact/KI (Cloned cathepsin S; 25° C., pH 6.5): 920000 M⁻¹ s⁻¹

Compound: Cl.NC(C=CS(=O)(=O)c1ccccc1)CCCCNC(=O)OCc1ccccc1 (stereo not drawn) [HCl.(e-Z)LysVSPh]
- percentage inhibition, L. donovani ([2]; 3 uM): 100%
- percentage inhibition, L. donovani ([2]; 10 uM): 100%
- percentage inhibition, L. donovani ([2]; 30 uM): T
- percentage inhibition, L. donovani ([2]; 90 uM): T
- ED50, T. cruzi [3]: 18.34 µM
- percentage inhibition, T. cruzi ([3]; 3 uM): 2.7%
- percentage inhibition, T. cruzi ([3]; 10 uM): 10.6%
- percentage inhibition, T. cruzi ([3]; 30 uM): 82.8%
- percentage inhibition, T. cruzi ([3]; 90 uM): 97.8%
- ED50, T. brucei [4]: 8 µM
- percentage inhibition, T. brucei ([4]; 1 uM): 7.6%
- percentage inhibition, T. brucei ([4]; 3 uM): 13%
- percentage inhibition, T. brucei ([4]; 10 uM): 39.3%
- percentage inhibition, T. brucei ([4]; 30 uM): 100%
- percentage inhibition, T. brucei ([4]; 90 uM): 100%

Compound: Cl.NC(Cc1ccccc1)C(=O)NC(C=CS(=O)(=O)c1ccccc1)CCc1ccccc1 (stereo not drawn) [HCl.Phe-HphVSPh]
- kobs /[I]* (approximate second-order inactivation constant) (Cloned cathepsin S; 25° C., pH 6.5): 35,000 M^-1 sec^-1
- kobs /[I]* (approximate second-order inactivation constant) (cruzain, from T. cruzi): 14,600 M^-1 sec^-1

Compound: CS(=O)(=O)/C=C/[C@@H](N)Cc1ccccc1.Cl [HCl.PheVSMe]
- percentage inhibition, L. donovani ([2]; 3 uM): 100%
- percentage inhibition, L. donovani ([2]; 10 uM): 100%
- percentage inhibition, L. donovani ([2]; 30 uM): 100%
- percentage inhibition, L. donovani ([2]; 90 uM): 100%
- percentage inhibition, T. cruzi ([3]; 3 uM): 0%
- percentage inhibition, T. cruzi ([3]; 10 uM): 0%
- percentage inhibition, T. cruzi ([3]; 30 uM): 0%
- percentage inhibition, T. cruzi ([3]; 90 uM): 17.3%
- percentage inhibition, T. brucei ([4]; 3 uM): 0%
- percentage inhibition, T. brucei ([4]; 10 uM): 0%
- percentage inhibition, T. brucei ([4]; 30 uM): 0%
- percentage inhibition, T. brucei ([4]; 90 uM): 0%

Compound: O=C(N[C@@H](/C=C/S(=O)(=O)c1ccccc1)CCc1ccccc1)C(Cc1ccccc1)NC(=O)N1CCOCC1 (stereo partly drawn) [Mu-Phe-D-HphVSPh, (R)-(E)-3-(4-morpholinecarbonylphenylalanyl)amino-5-phenyl-1-phenylsulfonyl-1-pentene]
- kobs /[I]* (approximate second-order inactivation constant) [5]: 4,500 M^-1 sec^-1
- kobs /[I]* (approximate second-order inactivation constant) (Cloned cathepsin S; 25° C., pH 6.5): 68,500 M^-1 sec^-1

Compound: O=C(/C=C/[C@H](CCc1ccccc1)NC(=O)C(Cc1ccccc1)NC(=O)N1CCOCC1)NC(Cc1ccccc1)C(=O)O (stereo partly drawn) [Mu-Phe-HphVAM-PheOH, (S)-(E)-(N-phenylalanine)-4-(4-morpholinecarbonylphenylalanyl)amino-6-phenyl-2-hexenamide]
- kobs /[I]* (approximate second-order inactivation constant) [1]: 600 M⁻¹ s⁻¹
- kobs /[I]* (approximate second-order inactivation constant) (Cloned cathepsin S; 25° C., pH 6.5): 10,600 M^-1 sec^-1

Compound: O=C(NCCCC[C@@H](/C=C/S(=O)(=O)c1ccccc1)NC(=O)[C@H](Cc1ccccc1)NC(=O)N1CCOCC1)c1ccccc1 [Mu-Phe-Lys(Bz)VSPh, (S)-(E)-3-(4-morpholinecarbonylphenylalanyl)amino-7-benzoylamino-1-phenylsulfonyl-1-heptene]
- kobs /[I]* (approximate second-order inactivation constant) [5]: 210,000 M^-1 sec^-1
- kobs /[I]* (approximate second-order inactivation constant) (Cloned cathepsin S; 25° C., pH 6.5): 2,500,000 M^-1 sec^-1
- kobs /[I]* (approximate second-order inactivation constant) (cruzain, from T. cruzi): 60,000 M^-1 sec^-1

Compound: O=C(NCCCC[C@@H](C=C(F)S(=O)(=O)c1ccccc1)NC(=O)[C@H](Cc1ccccc1)NC(=O)N1CCOCC1)OCc1ccccc1 [Mu-Phe-Lys(Z)fVSPh, (S)-7-(benzyloxycarbonyl)amino-3-(4-morpholinecarbonylphenylalanyl)amino-1-fluoro-1-phenylsulfonyl-1-heptene]
- kobs /[I]* (approximate second-order inactivation constant) [1]: 2,000 M^-1 sec^-1
- kobs /[I]* (approximate second-order inactivation constant) (Cloned cathepsin S; 25° C., pH 6.5): 10,700 M^-1 sec^-1

Compound: Br.CCOC(=O)/C=C/[C@H](CCCCN)NC(=O)[C@H](Cc1ccccc1)NC(=O)N1CCOCC1 [Mu-Phe-LysVEOEt.HBr, (S)-(E)-Ethyl 8-amino-4-(4-morpholinecarbonylphenylalanyl)amino-2octenoate hydrobromide]
- kobs /[I]* (approximate second-order inactivation constant) [1]: 650 M⁻¹ s⁻¹
- kirr [5]: 0.085 s⁻¹
- Ki [5]: 24.2 µM
- k/KI (kirr/KI) [5]: 3500 M⁻¹ s⁻¹

Compound: (S)-(E)-3-(4-morpholinecarbonyl-2-naphthylalanyl)amino-5-phenyl-1-phenylsulfonyl-1-pentene [Mu-Np-HphVSPh]
- kobs /[I]* (approximate second-order inactivation constant) [1]: 86,000 M^-1 sec^-1
- kobs /[I]* (approximate second-order inactivation constant) [5]: 1,000,000 M^-1 sec^-1
- k/KI (kirr/KI) (cruzain, from T. cruzi; values without asterisk): 218,000 M^-1 sec^-1

Compound: (S)-(E)-3-(4-morpholinecarbonylphenylalanyl)amino-1-(4-bromophenylsulfonyl)-5-phenyl-1-pentene [Mu-Phe-HphVSPhBr]
- kobs /[I]* (approximate second-order inactivation constant) [1]: 15,500 M^-1 sec^-1

Compound: (S)-(E)-Ethyl8-(benzyloxycarbonyl)amino-4-(4-morpholinecarbonylphenylalanyl)amino-2-octenoate [Mu-Phe-Lys(Z)VEOEt]
- kirr [1]: 0.13 s⁻¹
- Ki ([1]; corrected for substrate): 32 µM
- k/KI (kirr/KI) [1]: 4100 M⁻¹ s⁻¹
- kirr [5]: 0.87 s⁻¹
- Ki [5]: 6.2 µM
- k/KI (kirr/KI) [5]: 13,900 M^-1 sec^-1
- kirr (Cloned cathepsin S): 0.13 s⁻¹
- Ki (Cloned cathepsin S; corrected for substrate): 1300 nM
- k/KI (kirr/KI) (Cloned cathepsin S; values without asterisk, 25° C., pH 6.5): 100,000 M^-1 sec^-1

Compound: Boc-phenylalanyl-homophenylalanyl-p-nitrostyryl
- kobs /[I]* (approximate second-order inactivation constant) (Cloned cathepsin S; 25° C., pH 6.5): 40,100 M^-1 sec^-1

Reference: patent US6287840A (Axys Pharmaceuticals, Inc., priority 1999, dated 2001)
